In the supplement of paper PMC11451515:

Tests used:
SEM cells [1] = test: AUC of viability dose-response curve (% viability x log10 dose units); higher = less sensitive; conditions: 48 h
Outline: (§1)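 Medium-adapted leukemia cells in 1536-well plates, at 500 or 1000 cells/well, were incubated for 48 h at 37°C with library compounds in DMSO at 11 threefold doses from 47 μM to 0.79 nM. CellTiter-Glo One luminescence normalised per plate to DMSO and cell-free wells was fitted with a four-parameter log-logistic model over log10 doses. Area under the curve was integrated from this fit by trapezoidal rule, with curves beyond full viability scaled and failed quality-control curves removed.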

P12-Ichikawa [2] = test: as above; conditions: 48 h
Outline: as §1

NOMO1 = test: as above; conditions: 48 h
Outline: as §1

SEM cells [3] = test: cell viability relative to DMSO control; higher = less cytotoxic; conditions: HPLM + 10% dialyzed FBS, 48 h
Outline: (§2)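 NOMO1 or SEM (500 cells/well) or P12-Ichikawa (1000 cells/well) leukemia cells were adapted for at least four passages in each medium. They were seeded in 1536-well plates (5 μl) and pin-dosed with library compounds in DMSO over an 11-point threefold series, 47 μM to 0.79 nM. CellTiter-Glo One luminescence was read after 48 h at 37°C. Viability is the per-plate percentage relative to DMSO wells, with cell-free wells as background.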

P12-Ichikawa [4] = test: as above; conditions: HPLM + 10% dialyzed FBS, 48 h
Outline: as §2

[5] = RPMI 5 mM glucose + 10% dialyzed FBS

Structure (SMILES) | AUC of viability dose-response curve (SEM cells [1]; HPLM + 10% dialyzed FBS) | AUC of viability dose-response curve (SEM cells [1]; RPMI 5 mM glucose + 10% FBS) | AUC of viability dose-response curve (SEM cells [1]; [5]) | AUC of viability dose-response curve (P12-Ichikawa [2]; HPLM + 10% dialyzed FBS) | AUC of viability dose-response curve (P12-Ichikawa [2]; RPMI 5 mM glucose + 10% FBS) | AUC of viability dose-response curve (P12-Ichikawa [2]; [5]) | AUC of viability dose-response curve (NOMO1; HPLM + 10% dialyzed FBS) | AUC of viability dose-response curve (NOMO1; RPMI 5 mM glucose + 10% FBS) | AUC of viability dose-response curve (NOMO1; [5]) | cell viability (SEM cells [3]; 0.000781 µM) [%] | cell viability (SEM cells [3]; 0.00234 µM) [%] | cell viability (SEM cells [3]; 0.00702 µM) [%] | cell viability (SEM cells [3]; 0.0211 µM) [%] | cell viability (SEM cells [3]; 0.0632 µM) [%] | cell viability (SEM cells [3]; 0.19 µM) [%] | cell viability (SEM cells [3]; 0.569 µM) [%] | cell viability (SEM cells [3]; 1.71 µM) [%] | cell viability (SEM cells [3]; 5.12 µM) [%] | cell viability (SEM cells [3]; 15.4 µM) [%] | cell viability (SEM cells [3]; 46.1 µM) [%] | cell viability (P12-Ichikawa [4]; 0.000781 µM) [%] | cell viability (P12-Ichikawa [4]; 0.00234 µM) [%] | cell viability (P12-Ichikawa [4]; 0.00702 µM) [%] | cell viability (P12-Ichikawa [4]; 0.0211 µM) [%] | cell viability (P12-Ichikawa [4]; 0.0632 µM) [%] | cell viability (P12-Ichikawa [4]; 0.19 µM) [%] | cell viability (P12-Ichikawa [4]; 0.569 µM) [%] | cell viability (P12-Ichikawa [4]; 1.71 µM) [%] | cell viability (P12-Ichikawa [4]; 5.12 µM) [%] | cell viability (P12-Ichikawa [4]; 15.4 µM) [%] | cell viability (P12-Ichikawa [4]; 46.1 µM) [%]
CC/1=C(\CCN2CCC(CC2)C3=NOC4=C3C=CC(=C4)F)C(=O)N/5CCCCC5=N1 | 475 | 473 | 468 | 463 | 457 | 476 | 457 | 477 | 472 | 102 | 91.1 | 106 | 103 | 122 | 124 | 72.9 | 45.9 | 112 | 115 | 110 | 125 | 120 | 122 | 118 | 130 | 124 | 127 | 116 | 126 | 133 | 127
FC(F)(F)c1ccc(CNc2ccc(Cc3c[nH]c4ncc(Cl)cc34)cn2)cn1 | 317 | 245 | 314 | 268 | 367 | 370 | – | – | – | – | – | – | – | – | – | – | – | – | – | – | – | – | – | – | – | – | – | – | – | – | –
COc1c(O)cc2c(c1O)[C@@H]1O[C@H](CO)[C@@H](O)[C@H](O)[C@H]1OC2=O | 431 | 394 | 409 | 432 | 432 | 427 | 419 | 448 | 454 | – | – | – | – | – | – | – | – | – | – | – | – | – | – | – | – | – | – | – | – | – | –
OCCN1C[C@H](O)[C@@H](O)[C@H](O)[C@H]1CO | 432 | 417 | 384 | 365 | 371 | 377 | 296 | 266 | 296 | 93.6 | 116 | 129 | 118 | 86.6 | 114 | 138 | 125 | 134 | 136 | 123 | – | – | – | – | – | – | – | – | – | – | –
COC1=CC=C2[N](CCCN(C)C)C=C(C2=C1)C/3=C(/C(=O)NC3=O)C4=C[NH]C5=C4C=CC=C5 | 425 | 365 | 387 | 456 | 453 | 452 | 471 | 471 | 472 | 107 | 123 | 123 | 123 | 122 | 57.2 | 132 | 111 | 88.4 | 67.4 | 8.06 | – | – | – | – | – | – | – | – | – | – | –
CCCCC[C@H](O)/C=C/[C@H]1[C@H](O)CC(=O)[C@@H]1CCCCCCC(=O)O | 402 | 399 | 409 | 464 | 445 | 453 | 412 | 455 | 417 | – | – | – | – | – | – | – | – | – | – | – | – | – | – | – | – | – | – | – | – | – | –
